The record followed here is patent publication US9938273B2 (Plexxikon Inc., priority 2015, dated 2018).

For one experiment, the target named is T1, FLT3-ITD (Homo sapiens, UniProt P36888).
T1 sequence (P36888 1-993): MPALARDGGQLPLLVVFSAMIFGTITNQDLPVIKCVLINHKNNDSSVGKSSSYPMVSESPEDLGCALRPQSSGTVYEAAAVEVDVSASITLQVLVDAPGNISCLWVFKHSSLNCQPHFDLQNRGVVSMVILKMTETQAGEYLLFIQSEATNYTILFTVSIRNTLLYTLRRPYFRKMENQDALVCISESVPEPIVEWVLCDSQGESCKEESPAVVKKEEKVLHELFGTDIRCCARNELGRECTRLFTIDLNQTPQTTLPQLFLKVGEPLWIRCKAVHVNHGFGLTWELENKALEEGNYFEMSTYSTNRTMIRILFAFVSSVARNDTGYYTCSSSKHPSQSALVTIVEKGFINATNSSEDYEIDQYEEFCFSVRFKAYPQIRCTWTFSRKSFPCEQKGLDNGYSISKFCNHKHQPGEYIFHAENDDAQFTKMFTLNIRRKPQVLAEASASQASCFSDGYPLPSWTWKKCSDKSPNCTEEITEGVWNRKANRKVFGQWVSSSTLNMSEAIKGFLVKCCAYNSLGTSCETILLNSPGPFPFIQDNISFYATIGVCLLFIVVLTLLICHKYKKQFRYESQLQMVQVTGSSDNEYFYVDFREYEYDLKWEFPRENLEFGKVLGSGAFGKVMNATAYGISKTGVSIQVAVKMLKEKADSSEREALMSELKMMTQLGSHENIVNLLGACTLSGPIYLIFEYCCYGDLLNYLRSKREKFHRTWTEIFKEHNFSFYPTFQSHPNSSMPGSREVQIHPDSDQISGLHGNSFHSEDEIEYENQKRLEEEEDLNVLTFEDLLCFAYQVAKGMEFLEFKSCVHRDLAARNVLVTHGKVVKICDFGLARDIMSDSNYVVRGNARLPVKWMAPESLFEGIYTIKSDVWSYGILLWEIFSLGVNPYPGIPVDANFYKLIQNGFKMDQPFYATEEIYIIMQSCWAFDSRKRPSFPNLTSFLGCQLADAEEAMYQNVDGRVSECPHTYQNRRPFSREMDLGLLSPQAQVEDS
Put plainly: AlphaScreen kinase assay with recombinant enzyme, FLT3-ITD. Format: biochemical. The conditions noted are these: 8pt; read-out: FLT3_ITD 8pt: IC50. Put shortly: (§1)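 Tyrosine phosphorylation of biotin-poly(Glu4-Tyr) substrate by recombinant enzyme is detected with PY20 acceptor and streptavidin donor beads after room-temperature incubations of 20 and 60 min. IC50 values were derived at a final 10 μM (FLT3-D835Y, FLT3-ITD) or 100 μM (c-KIT).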
Background: Bead proximity is the source of the signal in Alpha formats.

Another experiment addresses T2, FLT3-D835Y (Homo sapiens, UniProt P36888, D835Y).
T2 construct: purchased Invitrogen PV3967
T2 sequence (P36888 27-993 D835Y): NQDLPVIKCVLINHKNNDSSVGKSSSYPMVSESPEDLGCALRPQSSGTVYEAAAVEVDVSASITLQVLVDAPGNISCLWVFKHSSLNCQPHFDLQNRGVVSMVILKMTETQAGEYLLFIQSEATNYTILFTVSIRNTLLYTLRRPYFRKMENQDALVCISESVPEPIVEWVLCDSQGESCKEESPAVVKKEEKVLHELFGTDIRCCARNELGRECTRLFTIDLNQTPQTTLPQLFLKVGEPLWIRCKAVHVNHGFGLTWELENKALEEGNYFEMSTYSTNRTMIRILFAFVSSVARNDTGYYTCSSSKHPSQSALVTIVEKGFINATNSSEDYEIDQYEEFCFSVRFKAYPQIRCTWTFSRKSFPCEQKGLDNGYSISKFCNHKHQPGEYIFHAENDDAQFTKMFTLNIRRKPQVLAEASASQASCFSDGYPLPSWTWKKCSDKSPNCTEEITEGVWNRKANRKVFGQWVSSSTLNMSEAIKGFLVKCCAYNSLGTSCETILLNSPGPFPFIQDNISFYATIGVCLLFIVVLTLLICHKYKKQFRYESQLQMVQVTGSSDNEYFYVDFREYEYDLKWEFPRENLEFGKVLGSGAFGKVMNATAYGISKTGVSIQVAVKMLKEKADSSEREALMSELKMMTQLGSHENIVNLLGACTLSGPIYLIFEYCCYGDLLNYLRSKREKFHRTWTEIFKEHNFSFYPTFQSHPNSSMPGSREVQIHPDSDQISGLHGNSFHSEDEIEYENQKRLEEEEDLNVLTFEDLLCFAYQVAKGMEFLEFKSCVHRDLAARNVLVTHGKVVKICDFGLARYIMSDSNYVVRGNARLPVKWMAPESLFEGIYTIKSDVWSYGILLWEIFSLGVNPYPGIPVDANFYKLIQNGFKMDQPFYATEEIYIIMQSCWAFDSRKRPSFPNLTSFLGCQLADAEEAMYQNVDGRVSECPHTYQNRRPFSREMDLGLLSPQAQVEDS
Put plainly: AlphaScreen kinase assay with recombinant enzyme, FLT3-D835Y. Format: biochemical. The conditions noted are these: 8pt, GMean. Put shortly: as §1

The structures appear in SMILES notation.

In general, IC50 refers to the concentration at which inhibition is half-maximal. As for `CC(C)(C#N)NC(=O)c1cccc(-c2cnc3[nH]c(-c4ccccc4)cc3c2)n1` [Compound P-0118, N-(1-cyano-1-methyl-ethyl)-6-(2-phenyl-1H-pyrrolo[2,3-b]pyridin-5-yl)pyridine-2-carboxamide], the IC50 on FLT3-ITD and on FLT3-D835Y was 0.0001 to 10 µM in each case.
In the case of `CC(C)(C#N)NC(=O)c1cccc(-c2cnc3[nH]c(C4=CCN(S(=O)(=O)C5CC5)CC4)cc3c2)n1` [Compound P-0188, N-(1-cyano-1-methyl-ethyl)-6-[2-(1-cyclopropylsulfonyl-3,6-dihydro-2H-pyridin-4-yl)-1H-pyrrolo[2,3-b]pyridin-5-yl]pyridine-2-carboxamide], the IC50 on FLT3-ITD and on FLT3-D835Y was 0.0001 to 10 µM each time.
With `CNC(=O)C1CCN(C(=O)c2cccc(-c3cnc4[nH]c(-c5ccccc5)cc4c3)n2)C1` (stereo not shown) [Compound P-0096, N-methyl-1-[6-(2-phenyl-1H-pyrrolo[2,3-b]pyridin-5-yl)pyridine-2-carbonyl]pyrrolidine-3-carboxamide], the IC50 on FLT3-ITD and on FLT3-D835Y was 0.0001 to 10 µM each time.
`CC(C)(C#N)CNC(=O)c1cccc(-c2cnc3[nH]c(-c4ccccc4)c(I)c3c2)n1` [Compound P-0127, N-(2-cyano-2-methyl-propyl)-6-(3-iodo-2-phenyl-1H-pyrrolo[2,3-b]pyridin-5-yl)pyridine-2-carboxamide]: the IC50 on FLT3-ITD and on FLT3-D835Y was 0.0001 to 10 µM throughout.
As to `N#CC1CCN(C(=O)c2cccc(-c3cnc4[nH]c(C5=CCCCC5)cc4c3)n2)C1` (stereo not shown) [Compound P-0120, 1-[6-[2-(cyclohexen-1-yl)-1H-pyrrolo[2,3-b]pyridin-5-yl]pyridine-2-carbonyl]pyrrolidine-3-carbonitrile], the IC50 at FLT3-ITD and at FLT3-D835Y was 0.0001 to 10 µM each time.
Consider `CC(C)(C#N)NC(=O)c1cccc(-c2cnc3[nH]c(C4=CCSCC4)cc3c2)n1` [Compound P-0180, N-(1-cyano-1-methyl-ethyl)-6-[2-(3,6-dihydro-2H-thiopyran-4-yl)-1H-pyrrolo[2,3-b]pyridin-5-yl]pyridine-2-carboxamide], for which the IC50 at FLT3-ITD and at FLT3-D835Y was 0.0001 to 10 µM throughout.
With `N#C[C@@H]1CCN(C(=O)c2cccc(-c3cnc4[nH]c(-c5ccccc5)cc4c3)n2)C1` [Compound P-0122, (3R)-1-[6-(2-phenyl-1H-pyrrolo[2,3-b]pyridin-5-yl)pyridine-2-carbonyl]pyrrolidine-3-carbonitrile], the IC50 on FLT3-ITD and on FLT3-D835Y was 0.0001 to 10 µM each time.
`CC(C)(C)OC(=O)N1CC=C(c2cc3cc(-c4cccc(C(=O)N5CCC(C#N)C5)n4)cnc3[nH]2)C1` (stereo not shown) [Compound P-0135, tert-butyl 3-[5-[6-(3-cyanopyrrolidine-1-carbonyl)-2-pyridyl]-1H-pyrrolo[2,3-b]pyridin-2-yl]-2,5-dihydropyrrole-1-carboxylate]: the 50% inhibitory concentration (IC50) on FLT3-ITD and at FLT3-D835Y was 0.0001 to 10 µM throughout.
Take `CC(C)(C#N)CNC(=O)c1cccc(-c2cnc3[nH]c(-c4cnn(CC(F)(F)F)c4)cc3c2)n1` [Compound P-0113, N-(2-cyano-2-methyl-propyl)-6-[2-[1-(2,2,2-trifluoroethyl)pyrazol-4-yl]-1H-pyrrolo[2,3-b]pyridin-5-yl]pyridine-2-carboxamide]: the IC50 at FLT3-ITD and at FLT3-D835Y was 0.0001 to 10 µM in each case.
As to `N#Cc1cccc(-c2cc3cc(-c4cccc(C(=O)N5CCC(C#N)C5)n4)cnc3[nH]2)c1` (stereo not shown) [Compound P-0133, 1-[6-[2-(3-cyanophenyl)-1H-pyrrolo[2,3-b]pyridin-5-yl]pyridine-2-carbonyl]pyrrolidine-3-carbonitrile], the IC50 on FLT3-ITD and at FLT3-D835Y was 0.0001 to 10 µM each time.
On to `CS(=O)(=O)N1CCC(NS(=O)(=O)c2cccc(-c3cnc4[nH]c(-c5ccccc5)cc4c3)n2)C1` (stereo not shown) [Compound P-0107, N-(1-methylsulfonylpyrrolidin-3-yl)-6-(2-phenyl-1H-pyrrolo[2,3-b]pyridin-5-yl)pyridine-2-sulfonamide], for which the IC50 at FLT3-ITD and on FLT3-D835Y was 0.0001 to 10 µM in each case.
